DC50 and Dmax data for 23 compounds are collected here from patent US11548870B2, “Compounds useful as inhibitors of helios protein” (Bristol-Myers Squibb Company, priority 2019, dated 2023).

In assay [1] the target is T1, Helios (Homo sapiens, UniProt Q96SW2+Q9UKS7).
T1 construct: fluorescently labelled antibodies against Helios and Ikaros; endogenous in cells; host or cells: Jurkat cells
The assay can be described thus: Helios Cellular Degradation Assay (flow cytometry, Helios-PE antibody staining, 72 h). In kind it is cell-based. The conditions noted are these: Jurkat cells, 72 h incubation, flow cytometry; for Dmax: Jurkat, read-out: Helios Dmax. In short, it runs like this:
(§1)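 Flow cytometry of fixed, permeabilized Jurkat cells stained with anti-Helios-PE and anti-Ikaros-Alexa488 (1 h, room temperature) measured remaining protein. Treatment lasted 72 h at 37 °C, 5% CO2, at 80,000 cells/well in RPMI with 10% FBS.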

For assay [2], the target named is T2, Ikaros (Homo sapiens, UniProt Q13422).
T2 construct: fluorescently labelled antibodies against Helios and Ikaros; endogenous in cells; host or cells: Jurkat cells
T2 sequence (Q96SW2 whole entry partner): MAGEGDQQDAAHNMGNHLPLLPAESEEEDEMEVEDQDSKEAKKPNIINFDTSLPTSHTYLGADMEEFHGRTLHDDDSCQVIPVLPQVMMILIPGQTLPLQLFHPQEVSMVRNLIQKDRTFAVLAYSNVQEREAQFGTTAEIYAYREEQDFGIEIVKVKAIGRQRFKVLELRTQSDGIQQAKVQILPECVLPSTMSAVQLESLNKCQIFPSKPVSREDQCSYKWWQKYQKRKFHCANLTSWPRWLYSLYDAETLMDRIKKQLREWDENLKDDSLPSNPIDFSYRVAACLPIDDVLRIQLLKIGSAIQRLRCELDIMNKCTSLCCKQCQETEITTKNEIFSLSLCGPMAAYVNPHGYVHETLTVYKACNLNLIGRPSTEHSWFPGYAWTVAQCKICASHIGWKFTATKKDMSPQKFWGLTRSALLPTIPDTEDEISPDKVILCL
T2 sequence (Q16531 whole entry partner): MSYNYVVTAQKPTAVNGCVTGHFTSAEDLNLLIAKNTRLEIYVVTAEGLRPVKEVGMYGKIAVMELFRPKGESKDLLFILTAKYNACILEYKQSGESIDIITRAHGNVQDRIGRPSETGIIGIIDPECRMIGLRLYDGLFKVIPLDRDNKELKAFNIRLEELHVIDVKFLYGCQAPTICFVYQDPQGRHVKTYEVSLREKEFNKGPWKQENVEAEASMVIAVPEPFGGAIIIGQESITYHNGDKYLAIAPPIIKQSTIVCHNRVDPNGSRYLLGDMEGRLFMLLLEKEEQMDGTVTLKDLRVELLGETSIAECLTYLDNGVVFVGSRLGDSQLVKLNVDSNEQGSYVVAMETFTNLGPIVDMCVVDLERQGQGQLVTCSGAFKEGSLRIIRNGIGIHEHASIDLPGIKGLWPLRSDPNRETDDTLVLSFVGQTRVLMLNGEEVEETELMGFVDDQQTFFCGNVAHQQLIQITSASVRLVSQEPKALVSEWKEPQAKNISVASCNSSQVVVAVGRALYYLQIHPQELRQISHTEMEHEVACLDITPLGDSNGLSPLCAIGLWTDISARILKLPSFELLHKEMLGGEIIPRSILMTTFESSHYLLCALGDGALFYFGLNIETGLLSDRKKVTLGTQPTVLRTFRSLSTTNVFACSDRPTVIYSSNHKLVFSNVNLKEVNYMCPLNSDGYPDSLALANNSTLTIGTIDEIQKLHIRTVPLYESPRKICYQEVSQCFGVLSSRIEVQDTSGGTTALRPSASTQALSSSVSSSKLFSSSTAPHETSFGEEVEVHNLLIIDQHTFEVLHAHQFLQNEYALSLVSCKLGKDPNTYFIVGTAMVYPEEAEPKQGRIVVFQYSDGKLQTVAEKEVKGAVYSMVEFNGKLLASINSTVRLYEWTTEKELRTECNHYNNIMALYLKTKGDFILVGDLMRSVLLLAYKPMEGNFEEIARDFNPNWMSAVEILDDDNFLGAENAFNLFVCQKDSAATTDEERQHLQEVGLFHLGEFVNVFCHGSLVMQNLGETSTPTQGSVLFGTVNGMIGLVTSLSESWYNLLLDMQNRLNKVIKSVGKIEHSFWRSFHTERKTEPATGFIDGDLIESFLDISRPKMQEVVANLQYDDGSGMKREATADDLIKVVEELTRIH
T2 sequence (Q13422 whole entry): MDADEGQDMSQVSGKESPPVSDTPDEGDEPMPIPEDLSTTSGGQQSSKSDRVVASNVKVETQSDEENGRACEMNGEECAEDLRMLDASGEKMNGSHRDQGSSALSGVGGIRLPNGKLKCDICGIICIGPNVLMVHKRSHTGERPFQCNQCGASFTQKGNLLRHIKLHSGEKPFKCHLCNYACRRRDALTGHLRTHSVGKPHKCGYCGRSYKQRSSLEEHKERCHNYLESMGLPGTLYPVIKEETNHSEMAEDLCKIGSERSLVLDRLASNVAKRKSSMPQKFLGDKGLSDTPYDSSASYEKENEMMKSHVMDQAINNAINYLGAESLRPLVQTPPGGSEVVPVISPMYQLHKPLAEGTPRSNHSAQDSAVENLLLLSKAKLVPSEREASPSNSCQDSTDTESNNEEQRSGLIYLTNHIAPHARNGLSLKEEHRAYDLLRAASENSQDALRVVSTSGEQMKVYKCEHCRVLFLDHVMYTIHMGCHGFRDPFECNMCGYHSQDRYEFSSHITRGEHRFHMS
The assay can be described thus: Helios Cellular Degradation Assay, Ikaros readout (flow cytometry, Ikaros-Alexa488 antibody staining, 72 h). In kind it is cell-based. The conditions noted are these: Jurkat cells, 72 h incubation, flow cytometry; for Dmax: Jurkat, read-out: Ikaros Dmax. In short, it runs like this: as §1
(In general: Flow cytometry measures light scatter and fluorescence of single cells or particles in a stream.)

The structures appear in SMILES notation.

T1 sequence (Q9UKS7 whole entry): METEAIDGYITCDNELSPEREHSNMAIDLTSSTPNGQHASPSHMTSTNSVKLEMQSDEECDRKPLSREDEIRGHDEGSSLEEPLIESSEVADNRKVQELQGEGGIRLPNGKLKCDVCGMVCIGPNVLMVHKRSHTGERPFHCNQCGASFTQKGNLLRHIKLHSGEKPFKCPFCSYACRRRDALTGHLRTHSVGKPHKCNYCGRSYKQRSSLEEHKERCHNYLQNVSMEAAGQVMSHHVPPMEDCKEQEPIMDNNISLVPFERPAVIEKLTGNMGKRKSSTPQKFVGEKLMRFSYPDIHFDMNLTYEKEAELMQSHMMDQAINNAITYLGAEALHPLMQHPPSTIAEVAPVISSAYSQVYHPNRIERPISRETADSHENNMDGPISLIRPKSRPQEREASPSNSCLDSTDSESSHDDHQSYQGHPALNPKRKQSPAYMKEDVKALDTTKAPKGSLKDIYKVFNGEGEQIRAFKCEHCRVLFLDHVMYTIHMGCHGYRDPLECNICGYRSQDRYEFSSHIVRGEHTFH
T1 sequence (Q96SW2 whole entry): as the sequence (Q96SW2 whole entry partner) above
T1 sequence (Q16531 whole entry partner): as the sequence (Q16531 whole entry partner) above

Turning to `O=C1CCC(N2Cc3cc(-c4cc(CN5CCS(=O)(=O)CC5)ccn4)ccc3C2=O)C(=O)N1` (centres unmarked) [Example 167, 4-({2-[2-(2,6-Dioxopiperidin-3-yl)-1-oxo-2,3-dihydro-1H-isoindol-5-yl]pyridin-4-yl}methyl)-1λ6-thiomorpholine-1,1-dione], the DC50 in assay [1] and in assay [2] was more than 10000 nM throughout. For the same compound, the results for the Dmax in assay [1] and in assay [2] were 41% and 12%, respectively.

`CC(C)OC1CN(Cc2ccnc(-c3ccc4c(c3)CN(C3CCC(=O)NC3=O)C4=O)c2)C1` (centres unmarked) [Example 130, 3-(5-(4-((3-isopropoxyazetidin-1-yl)methyl)pyridin-2-yl)-1-oxoisoindolin-2-yl)piperidine-2,6-dione]: in assay [1], it took 244 nM to reach half-maximal degradation (DC50) and the Dmax – broadly, the greatest extent of degradation seen – was found to be 56%. In assay [2], the 50% degradation concentration (DC50) (usually the concentration giving 50% degradation) is more than 10000 nM and the Dmax worked out at 13%.

With `O=C1CCC(N2Cc3cc(-c4cc(CN5CCC(N6CCCC6)CC5)ccn4)ccc3C2=O)C(=O)N1` (centres unmarked) [Example 23, 3-(1-oxo-5-(4-((4-(pyrrolidin-1-yl)piperidin-1-yl)methyl)pyridin-2-yl)isoindolin-2-yl)piperidine-2,6-dione], the DC50 in assay [1] and in assay [2] was more than 10000 nM in each case. Further, the Dmax came out at 22% in assay [1] and 14% in assay [2].

On to `CN(C)CCN(C)Cc1ccnc(-c2ccc3c(c2)CN(C2CCC(=O)NC2=O)C3=O)c1` (centres unmarked) [Example 21, 3-(5-(4-(((2-(dimethylamino)ethyl) (methyl)amino)methyl)pyridin-2-yl)-1-oxoisoindolin-2-yl)piperidine-2,6-dione], for which, in assay [1], the DC50 is more than 10000 nM and the Dmax came out at 35%. In addition, in assay [2], the DC50 was more than 10000 nM and the Dmax turned out to be 4%.

`C[C@@H]1CCC[C@H](C)N1Cc1ccnc(-c2ccc3c(c2)CN(C2CCC(=O)NC2=O)C3=O)c1` (stereo partly drawn) [Example 120, 3-(5-(4-(((2R,6S)-2,6-dimethylpiperidin-1-yl)methyl)pyridin-2-yl)-1-oxoisoindolin-2-yl)piperidine-2,6-dione]: the DC50 in assay [1] was 85 nM; in assay [2] it was more than 10000 nM. Besides, the Dmax worked out at 84% in assay [1] and 3% in assay [2].

As to `CC(C)N(Cc1ccccc1)Cc1ccnc(-c2ccc3c(c2)CN(C2CCC(=O)NC2=O)C3=O)c1` (centres unmarked) [Example 19, 3-(5-(4-((benzyl(isopropyl)amino)methyl)pyridin-2-yl)-1-oxoisoindolin-2-yl)piperidine-2,6-dione], in assay [1], the DC50 came to 154 nM and the Dmax was 82%. Besides, in assay [2], the DC50 is more than 10000 nM and the Dmax is 50%.

Turning to `CC1CN(Cc2ccnc(-c3ccc4c(c3)CN(C3CCC(=O)NC3=O)C4=O)c2)C1` (centres unmarked) [Example 47, 3-(5-(4-((3-methylazetidin-1-yl)methyl)pyridin-2-yl)-1-oxoisoindolin-2-yl)piperidine-2,6-dione], in assay [1], half-maximal degradation (DC50) was put at 17 nM and the Dmax is 79%. For the same compound, in assay [2], the DC50 is more than 10000 nM and the Dmax is 8%.

Turning to `CC1CCN1Cc1ccnc(-c2ccc3c(c2)CN(C2CCC(=O)NC2=O)C3=O)c1` (centres unmarked) [Example 46, 3-(5-(4-((2-methylazetidin-1-yl)methyl)pyridin-2-yl)-1-oxoisoindolin-2-yl)piperidine-2,6-dione], in assay [1], the DC50 turned out to be 18 nM and the Dmax is 83%. In assay [2], the DC50 was more than 10000 nM and the Dmax was determined as 6%.

Take `O=C1CCC(N2Cc3cc(-c4cc(CNCC5CCCO5)ccn4)ccc3C2=O)C(=O)N1` (centres unmarked) [Example 66, 3-(1-oxo-5-(4-((((tetrahydrofuran-2-yl)methyl)amino)methyl)pyridin-2-yl)isoindolin-2-yl)piperidine-2,6-dione]: in assay [1], the DC50 is more than 10000 nM and the Dmax was determined as 26%. In assay [2], the DC50 was more than 10000 nM and the Dmax was 7%.

For the compound `C[C@H]1CCCCN1Cc1ccnc(-c2ccc3c(c2)CN(C2CCC(=O)NC2=O)C3=O)c1` (stereo partly drawn) [Example 74, 3-(5-(4-(((S)-2-methylpiperidin-1-yl)methyl)pyridin-2-yl)-1-oxoisoindolin-2-yl)piperidine-2,6-dione], in assay [1], it took 2500 nM to reach half-maximal degradation (DC50) and the Dmax stood at 53%. Besides, in assay [2], the DC50 is more than 10000 nM and the Dmax is 16%.

For the compound `CN(Cc1ccnc(-c2ccc3c(c2)CN(C2CCC(=O)NC2=O)C3=O)c1)Cc1ccc(F)c(F)c1` (centres unmarked) [Example 152, 3-(5-(4-(((3,4-difluorobenzyl)(methyl)amino)methyl)pyridin-2-yl)-1-oxoisoindolin-2-yl)piperidine-2,6-dione], in assay [1], half-maximal degradation (DC50) was put at 850 nM and the Dmax was 55%. Moreover, in assay [2], the DC50 was more than 10000 nM and the Dmax turned out to be 7%.

As for `CC1CCCC(C)N1Cc1ccnc(-c2ccc3c(c2)CN(C2CCC(=O)NC2=O)C3=O)c1` (centres unmarked) [Example 53, 3-(5-(4-((2,6-dimethylpiperidin-1-yl)methyl)pyridin-2-yl)-1-oxoisoindolin-2-yl)piperidine-2,6-dione], in assay [1], the DC50 was 231 nM and the Dmax stood at 77%. In addition, in assay [2], the DC50 was more than 10000 nM and the Dmax was found to be 21%.

Take `C[C@H]1CCCN(Cc2ccnc(-c3ccc4c(c3)CN(C3CCC(=O)NC3=O)C4=O)c2)C1` (stereo partly drawn) [Example 73, 3-(5-(4-(((S)-3-methylpiperidin-1-yl)methyl)pyridin-2-yl)-1-oxoisoindolin-2-yl)piperidine-2,6-dione]: in assay [1], the DC50 was found to be 45 nM and the Dmax amounted to 62%. In addition, in assay [2], the DC50 is more than 10000 nM and the Dmax stood at 13%.

As for `CN(Cc1ccnc(-c2ccc3c(c2)CN(C2CCC(=O)NC2=O)C3=O)c1)CC1CCCCC1` (centres unmarked) [Example 59, 3-(5-(4-(((cyclohexylmethyl)(methyl)amino)methyl)pyridin-2-yl)-1-oxoisoindolin-2-yl) piperidine-2,6-dione], the DC50 is 82 nM in assay [1] and more than 10000 nM in assay [2]. Further, the Dmax in assay [1] was determined as 79%; in assay [2] it was 20%.

In the case of `O=C1CCC(N2Cc3cc(-c4nccc(CN5CC(c6cccnc6)C5)c4F)ccc3C2=O)C(=O)N1` (centres unmarked) [Example 192, 3-(5-(3-fluoro-4-((3-(pyridin-3-yl)azetidin-1-yl)methyl)pyridin-2-yl)-1-oxoisoindolin-2-yl)piperidine-2,6-dione], in assay [1], the DC50 is more than 10000 nM and the Dmax came out at 41%. For the same compound, in assay [2], the DC50 is more than 10000 nM and the Dmax stood at 16%.

As to `CC(CCO)N(C)Cc1ccnc(-c2ccc3c(c2)CN(C2CCC(=O)NC2=O)C3=O)c1` (centres unmarked) [Example 185, 3-(5-(4-(((4-hydroxybutan-2-yl)(methyl)amino)methyl)pyridin-2-yl)-1-oxoisoindolin-2-yl)piperidine-2,6-dione], in assay [1], the DC50 is 421 nM and the Dmax was 62%. In assay [2], the DC50 was more than 10000 nM and the Dmax was 2%.

`O=C1CCC(N2Cc3cc(-c4cc(CN5CCc6ccccc6C5)ccn4)ccc3C2=O)C(=O)N1` (centres unmarked) [Example 39, 3-(5-(4-((3,4-dihydroisoquinolin-2(1H)-yl)methyl)pyridin-2-yl)-1-oxoisoindolin-2-yl)piperidine-2,6-dione]: in assay [1], the DC50 worked out at 444 nM and the Dmax stood at 58%. For the same compound, in assay [2], the DC50 was more than 10000 nM and the Dmax turned out to be 6%.

Regarding `CN1CCC(N(C)Cc2ccnc(-c3ccc4c(c3)CN(C3CCC(=O)NC3=O)C4=O)c2)CC1` (centres unmarked) [Example 170, 3-(5-(4-((methyl (1-methylpiperidin-4-yl)amino)methyl)pyridin-2-yl)-1-oxoisoindolin-2-yl)piperidine-2,6-dione], in assay [1], the DC50 was more than 10000 nM and the Dmax was determined as 22%. Further, in assay [2], the DC50 was more than 10000 nM and the Dmax was 2%.

For `CN(CCc1ccccn1)Cc1ccnc(-c2ccc3c(c2)CN(C2CCC(=O)NC2=O)C3=O)c1` (centres unmarked) [Example 16, 3-(5-(4-((methyl(2-(pyridin-2-yl)ethyl)amino)methyl)pyridin-2-yl)-1-oxoisoindolin-2-yl) piperidine-2,6-dione], the DC50 in assay [1] is 788 nM; in assay [2] it was more than 10000 nM. The Dmax in assay [1] worked out at 63%; in assay [2] it was 12%.

For the compound `O=C1CCC(N2Cc3cc(-c4cc(CNCCCN5CCOCC5)ccn4)ccc3C2=O)C(=O)N1` (centres unmarked) [Example 114, 3-(5-(4-(((3-morpholinopropyl)amino)methyl)pyridin-2-yl)-1-oxoisoindolin-2-yl)piperidine-2,6-dione], the DC50 in assay [1] was 63 nM; in assay [2] it was more than 10000 nM. The results for the Dmax in assay [1] and in assay [2] were 83% and 2%, respectively.

As to `CC(=O)N[C@H]1CCN(Cc2ccnc(-c3ccc4c(c3)CN(C3CCC(=O)NC3=O)C4=O)c2)C1` (stereo partly drawn) [Example 31, N-((3S)-1-((2-(2-(2,6-dioxopiperidin-3-yl)-1-oxoisoindolin-5-yl)pyridin-4-yl)methyl)pyrrolidin-3-yl)acetamide], in assay [1], half-maximal degradation (DC50) was put at 268 nM and the maximal degradation (Dmax) is 81%. In assay [2], the DC50 was more than 10000 nM and the Dmax turned out to be 20%.

As to `O=C1CCC(N2Cc3cc(-c4cc(CN5CCC5)ccn4)ccc3C2=O)C(=O)N1` (centres unmarked) [Example 165, 3-(5-{4-[(Azetidin-1-yl)methyl]pyridin-2-yl}-1-oxo-2,3-dihydro-1H-isoindol-2-yl) piperidine-2,6-dione], in assay [1], half-maximal degradation (DC50) was put at 56 nM and the Dmax turned out to be 95%. In addition, in assay [2], the DC50 was more than 10000 nM and the Dmax was 14%.

Consider `CN[C@@H]1CCCC[C@H]1N(C)Cc1ccnc(-c2ccc3c(c2)CN(C2CCC(=O)NC2=O)C3=O)c1` (stereo partly drawn) [Example 140, 3-(5-(4-((methyl((1R,2R)-2-(methylamino)cyclohexyl)amino)methyl)pyridin-2-yl)-1-oxoisoindolin-2-yl)piperidine-2,6-dione], for which, in assay [1], the DC50 is 12 nM and the Dmax amounted to 76%. In assay [2], the DC50 is more than 10000 nM and the Dmax was 22%.
